Measurements reported in paper PMC2577155 (The Journal of neuroscience : the official journal of the …, 2008).
Changes are numbered by the printed parent chain. Where two headings read alike, the source gives them in different places.

Tests used:
Sprague-Dawley rats [1] = assay: Catalepsy test; type: in vivo, rat; conditions: sc, up to 4 h; TBPB 30-100 mg/kg
hM2 = molecular target: T1, hM2 (Homo sapiens, UniProt P08172); assay: Calcium mobilization assay, CHO cells expressing hM2-Gqi5; type: cell-based; conditions: M2, concentrations up to 10μM
T1 sequence (P08172 1-466): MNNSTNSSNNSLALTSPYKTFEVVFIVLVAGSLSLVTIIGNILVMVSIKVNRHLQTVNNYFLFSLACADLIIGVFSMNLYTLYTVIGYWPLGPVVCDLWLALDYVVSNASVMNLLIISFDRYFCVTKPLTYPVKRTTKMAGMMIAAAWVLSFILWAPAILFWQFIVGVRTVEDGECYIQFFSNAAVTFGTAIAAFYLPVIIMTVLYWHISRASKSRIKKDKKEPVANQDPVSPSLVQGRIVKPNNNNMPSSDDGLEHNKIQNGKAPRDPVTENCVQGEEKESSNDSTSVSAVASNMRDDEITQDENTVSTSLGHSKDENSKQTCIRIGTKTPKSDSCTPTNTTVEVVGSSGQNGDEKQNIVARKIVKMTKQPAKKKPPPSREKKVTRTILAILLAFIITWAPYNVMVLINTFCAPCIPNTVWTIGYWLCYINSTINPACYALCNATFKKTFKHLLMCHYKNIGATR

[2] = tested on: Fos-like immunoreactivity; assay: Fos immunohistochemistry in rat forebrain; type: in vivo; conditions: 100 mg/kg sc, two hours after treatment
rM1 [3] = molecular target: T2, rM1 (Rattus norvegicus, UniProt P08482); conditions: atropine 1-10 nM (CCh) or 0.3-3.0 nM (TBPB)
T2 sequence (P08482 1-460): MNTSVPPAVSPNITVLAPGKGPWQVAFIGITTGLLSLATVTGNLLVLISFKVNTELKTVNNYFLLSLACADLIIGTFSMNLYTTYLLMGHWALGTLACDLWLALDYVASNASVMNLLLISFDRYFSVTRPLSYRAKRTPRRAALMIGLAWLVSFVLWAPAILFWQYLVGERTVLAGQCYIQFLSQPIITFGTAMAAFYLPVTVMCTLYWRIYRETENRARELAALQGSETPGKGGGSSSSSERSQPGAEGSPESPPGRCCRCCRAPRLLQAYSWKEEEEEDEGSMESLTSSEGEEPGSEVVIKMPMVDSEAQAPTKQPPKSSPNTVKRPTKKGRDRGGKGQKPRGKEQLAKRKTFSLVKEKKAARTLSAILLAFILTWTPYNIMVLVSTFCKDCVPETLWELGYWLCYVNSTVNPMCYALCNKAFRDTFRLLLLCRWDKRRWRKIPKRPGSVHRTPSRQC

[4] = tested on: amyloid precursor protein (APP) processing; type: cell-based; conditions: eight hours
hM3 = hM3 (Homo sapiens, UniProt P20309); assay: Calcium mobilization assay, CHO cells expressing hM3; type: cell-based; conditions: M3, concentrations up to 10μM
hM3, sequence (P20309 whole entry): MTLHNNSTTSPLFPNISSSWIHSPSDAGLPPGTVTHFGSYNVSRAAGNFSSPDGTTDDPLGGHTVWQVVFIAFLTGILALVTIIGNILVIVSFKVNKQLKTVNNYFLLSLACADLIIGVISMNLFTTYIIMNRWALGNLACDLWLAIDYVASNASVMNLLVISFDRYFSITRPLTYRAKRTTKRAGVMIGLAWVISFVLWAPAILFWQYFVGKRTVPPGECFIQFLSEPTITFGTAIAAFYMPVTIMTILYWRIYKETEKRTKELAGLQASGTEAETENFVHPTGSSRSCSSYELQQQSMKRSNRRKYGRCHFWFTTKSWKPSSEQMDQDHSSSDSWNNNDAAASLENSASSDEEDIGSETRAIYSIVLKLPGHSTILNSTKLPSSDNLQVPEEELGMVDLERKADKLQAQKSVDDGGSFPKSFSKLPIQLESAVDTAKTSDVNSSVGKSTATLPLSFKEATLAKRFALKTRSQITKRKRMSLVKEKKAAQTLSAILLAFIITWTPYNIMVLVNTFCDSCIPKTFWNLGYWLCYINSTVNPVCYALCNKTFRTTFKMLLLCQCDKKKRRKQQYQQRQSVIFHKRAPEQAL

rM1 [5] = molecular target: T2, rM1; conditions: wt rM1
rats = assay: Modified Irwin neurological test battery; type: in vivo, rat; conditions: 100 mg/kg
Aβ40 = type: cell-based; conditions: conditioned media, ELISA
hM5 = molecular target: T3, hM5 (Homo sapiens, UniProt P08912); assay: Calcium mobilization assay, CHO cells expressing hM5; type: cell-based; conditions: M5, concentrations up to 10μM
T3 sequence (P08912 1-532): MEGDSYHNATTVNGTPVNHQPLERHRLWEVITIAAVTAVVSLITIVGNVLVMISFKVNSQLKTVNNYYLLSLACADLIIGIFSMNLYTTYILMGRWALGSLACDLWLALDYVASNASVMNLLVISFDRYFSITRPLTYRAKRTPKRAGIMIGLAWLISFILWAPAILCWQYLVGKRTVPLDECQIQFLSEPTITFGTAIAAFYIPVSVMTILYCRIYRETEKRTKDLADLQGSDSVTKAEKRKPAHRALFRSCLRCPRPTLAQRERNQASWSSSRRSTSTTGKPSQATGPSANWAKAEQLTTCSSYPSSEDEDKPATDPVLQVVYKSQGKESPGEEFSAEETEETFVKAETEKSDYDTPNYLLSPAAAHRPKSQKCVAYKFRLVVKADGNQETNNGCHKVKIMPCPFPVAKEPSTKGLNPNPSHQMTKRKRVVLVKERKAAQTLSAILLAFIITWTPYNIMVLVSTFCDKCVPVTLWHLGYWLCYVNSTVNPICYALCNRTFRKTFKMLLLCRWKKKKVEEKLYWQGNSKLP

Sprague-Dawley rats [6] = assay: Locomotor activity when administered alone; type: in vivo, rat; conditions: 30-100 mg/kg sc
D2 receptors = D2 receptors (Homo sapiens, UniProt P14416); assay: D2 receptor affinity, NIMH Psychoactive Drug Screening Program; type: binding; conditions: D2, PDSP accession number 3156
D2 receptors, sequence (P14416 whole entry): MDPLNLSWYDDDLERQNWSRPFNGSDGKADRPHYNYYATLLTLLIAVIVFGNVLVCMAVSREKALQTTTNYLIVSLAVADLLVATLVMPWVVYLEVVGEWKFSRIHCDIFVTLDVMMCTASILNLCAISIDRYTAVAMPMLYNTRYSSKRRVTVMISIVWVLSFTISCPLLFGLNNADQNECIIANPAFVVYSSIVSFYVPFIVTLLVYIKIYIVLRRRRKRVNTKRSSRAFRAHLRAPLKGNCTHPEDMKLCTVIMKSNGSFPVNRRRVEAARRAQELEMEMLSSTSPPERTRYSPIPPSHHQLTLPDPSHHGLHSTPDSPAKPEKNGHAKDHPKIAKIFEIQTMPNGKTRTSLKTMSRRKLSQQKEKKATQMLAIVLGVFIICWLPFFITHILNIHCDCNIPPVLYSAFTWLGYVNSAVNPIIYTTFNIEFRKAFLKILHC

Sprague-Dawley rats [7] = assay: Amphetamine-induced hyperlocomotion; type: in vivo, rat; conditions: significant after 10, 30 and 56.6 mg/kg sc; amphetamine 1 mg/kg sc
rM4 = molecular target: T4, rM4 (Rattus norvegicus, UniProt P08485); assay: Calcium mobilization assay, CHO-K1 cells expressing rM4-Gqi5; type: cell-based; conditions: M4, concentrations up to 10μM
T4 sequence (P08485 1-478): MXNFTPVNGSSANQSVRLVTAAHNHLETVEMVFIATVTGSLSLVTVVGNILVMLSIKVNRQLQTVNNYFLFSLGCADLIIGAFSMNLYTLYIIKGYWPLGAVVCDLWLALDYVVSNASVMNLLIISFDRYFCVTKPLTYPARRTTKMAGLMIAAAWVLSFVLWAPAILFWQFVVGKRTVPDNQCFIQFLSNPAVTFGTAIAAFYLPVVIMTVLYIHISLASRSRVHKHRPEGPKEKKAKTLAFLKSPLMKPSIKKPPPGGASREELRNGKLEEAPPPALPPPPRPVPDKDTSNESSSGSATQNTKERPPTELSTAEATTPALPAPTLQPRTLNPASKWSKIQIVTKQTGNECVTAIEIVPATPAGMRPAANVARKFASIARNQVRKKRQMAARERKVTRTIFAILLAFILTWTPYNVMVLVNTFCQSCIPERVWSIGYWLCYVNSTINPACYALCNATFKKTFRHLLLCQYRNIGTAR

rM1 Y381A = molecular target: T5, rM1 Y381A (Rattus norvegicus, UniProt P08482, Y381A); conditions: ref Sur et al., 2003; cited from earlier work
T5 sequence (P08482 1-460 Y381A): T2 sequence (P08482 1-460) with Y381A

Sprague-Dawley rats [8] = conditions: ref Shannon et al., 2000; cited from earlier work

## O=C(CCCN1CCC(O)(c2ccc(Cl)cc2)CC1)c1ccc(F)cc1 [Haloperidol, haloperidol]
Sprague-Dawley rats [1]
  catalepsy: dose-and time-related increases in catalepsy

## CN1CCN(C2=Nc3cc(Cl)ccc3Nc3ccccc32)CC1 [clozapine]
Sprague-Dawley rats [1]
  catalepsy: failed to produce catalepsy

## Cc1ccccc1CN1CCC(N2CCC(n3c(=O)[nH]c4ccccc43)CC2)CC1 [TBPB]
hM2
  agonist activity: no agonist activity
[2]; DStr lateral
  number of Fos-like immunoreactive neurons: 2.3 ± 1.3 per mm^2
[2]; DStr medial
  number of Fos-like immunoreactive neurons: 4.2 ± 1.2 per mm^2
[2]; NAS shell
  number of Fos-like immunoreactive neurons: 72.2 ± 12.6 per mm^2
[2]; PFC
  number of Fos-like immunoreactive neurons: 326.3 ± 57.1 per mm^2
rM1 [3]
  interaction of the agonist with the orthosteric antagonist atropine: noncompetitive
[4]; 1 μM
  increase in shedding of APPsα compared to vehicle-treated cells: 58%
[4]; cell lysates
  production of CTFα: increased
hM3
  agonist activity: no agonist activity
rM1 [5]
  response as % of the maximal response to CCh: 77.3±3.4%
rats
  core body temperature: slight decrease
Aβ40
  Aβ40 levels, % of the vehicle control: 61%
hM5
  agonist activity: no agonist activity
Sprague-Dawley rats [6]
  effect on general locomotor output when administered alone: no effect
D2 receptors
  Ki: 1.4 µM
Sprague-Dawley rats [7]
  effect on amphetamine-induced hyperlocomotion: robust, dose-related inhibition
Sprague-Dawley rats [1]
  catalepsy: did not induce catalepsy
rM4
  agonist activity: no agonist activity

## Clc1ccc2c(c1)N=C(N1CCNCC1)c1ccccc1N2 [N-desmethylclozapine]
rM1 Y381A
  activation of the M1 (Y381A) mutant: fully activates

## CCCCCCOc1nsnc1C1=CCCN(C)C1 [xanomeline]
Sprague-Dawley rats [8]
  catalepsy: lack of catalepsy
